Data reported in patent US10227344B2, “CK2 inhibitors, compositions and methods thereof” (Polaris Pharmaceuticals, Inc., priority 2016, dated 2019).

Tests used:
[1] = target: purified CK2α enzyme (Homo sapiens, UniProt P68400); test: CK2 Protein Kinase Inhibition Assay (coupled PK/LDH assay); assay type: biochemical; conditions: CK2 enzyme 25 nM, 100 μM ATP, 37° C., Morrison equation
Procedure, shortened: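 Purified CK2α at 25 nM final, 1.5 mM peptide substrate, 100 μM ATP, pH 8.25 Tris buffer; compounds pre-incubated 10 min at 37° C. ADP coupled via PK/LDH to NADH loss at 340 nm over 30 min, 37° C. Ki from rate versus concentration by Morrison equation, triplicate points.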

[2] = test system: PC3; test: Cancer cell panel, cell viability (resazurin): Prostate, PC3; assay type: cell-based; conditions: Homo sapiens, PC-3, 72 hours, single agent, read-out: Example 3 IC50
Method: (§1) Cells were plated in 96-well plates and treated for 72 hours with a serially diluted CK2 inhibitor or anti-cancer drug or their combination. The suspension cell lines were treated right after plating, while the adherent cells were allowed to attach overnight prior to the start of the treatment.
(§2) Cell viability was determined by adding resazurin to cell cultures and measuring fluorescence with a plate reader. Relative cell viability was calculated by dividing the cell viability signal from a test sample by that of a non-treated control. […] Bliss Independence and Highest Single Agent models were used to determine if there is synergy, additivity or antagonism between the CK2 inhibitor and an anti-cancer drug.

[3] = test system: LnCap; test: Cancer cell panel, cell viability (resazurin): Prostate, LnCap; assay type: cell-based; conditions: Homo sapiens, 72 hours, single agent, read-out: Example 3 IC50
[4] = test system: OVCAR-3; test: Cancer cell panel, cell viability (resazurin): Ovarian, OVCAR-3; assay type: cell-based; conditions: Homo sapiens; OVCAR-3 (Ovarian), 72 hours, single agent; read-out: Example 3 IC50
[5] = test system: A2780; test: Cancer cell panel, cell viability (resazurin): Ovarian, A2780; assay type: cell-based; conditions: Homo sapiens, 72 hours, single agent, read-out: Example 3 IC50
[6] = test system: Caov-3; test: Cancer cell panel, cell viability (resazurin): Ovarian, Caov-3; assay type: cell-based; conditions: Homo sapiens; Caov-3 (Ovarian), 72 hours, single agent; read-out: Example 3 IC50
[7] = test system: Mia-Paca-2; test: Cancer cell panel, cell viability (resazurin): Pancreatic, Mia-Paca-2; assay type: cell-based; conditions: Homo sapiens; Mia-Paca-2 (Pancreatic), 72 hours, single agent; read-out: Example 3 IC50
[8] = test system: Panc-1; test: Cancer cell panel, cell viability (resazurin): Pancreatic, Panc-1; assay type: cell-based; conditions: Homo sapiens; Panc-1 (Pancreatic), 72 hours, single agent; read-out: Example 3 IC50
Method: as §1, §2

[9] = test system: HCT116; test: Cancer cell panel, cell viability (resazurin): Colon, HCT116; assay type: cell-based; conditions: Homo sapiens, HCT-116, 72 hours, single agent, read-out: Example 3 IC50
[10] = test system: HT29; test: Cancer cell panel, cell viability (resazurin): Colon, HT29; assay type: cell-based; conditions: Homo sapiens, HT-29, 72 hours, single agent, read-out: Example 3 IC50
[11] = test system: LoVo; test: Cancer cell panel, cell viability (resazurin): Colon, LoVo; assay type: cell-based; conditions: Homo sapiens, 72 hours, single agent, read-out: Example 3 IC50
[12] = test system: DLD-1; test: Cancer cell panel, cell viability (resazurin): Colon, DLD-1; assay type: cell-based; conditions: Homo sapiens; DLD-1 (Colon), 72 hours, single agent; read-out: Example 3 IC50
[13] = test system: A549; test: Cancer cell panel, cell viability (resazurin): NSCLC, A549; assay type: cell-based; conditions: Homo sapiens, 72 hours, single agent, read-out: Example 3 IC50
Method: as §1, §2

[14] = test system: H1975; test: Cancer cell panel, cell viability (resazurin): NSCLC, H1975; assay type: cell-based; conditions: Homo sapiens, NCI-H1975, 72 hours, single agent, read-out: Example 3 IC50
[15] = test system: H23; test: Cancer cell panel, cell viability (resazurin): NSCLC, H23; assay type: cell-based; conditions: Homo sapiens, NCI-H23, 72 hours, single agent, read-out: Example 3 IC50
[16] = test system: H2122; test: Cancer cell panel, cell viability (resazurin): NSCLC, H2122; assay type: cell-based; conditions: Homo sapiens, NCI-H2122, 72 hours, single agent, read-out: Example 3 IC50
[17] = test system: SkBr-3; test: Cancer cell panel, cell viability (resazurin): Breast, SkBr-3; assay type: cell-based; conditions: Homo sapiens, SK-BR-3; SkBr-3 (Breast), 72 hours, single agent; read-out: Example 3 IC50
[18] = test system: BT-20; test: Cancer cell panel, cell viability (resazurin): Breast, BT-20; assay type: cell-based; conditions: Homo sapiens; BT-20 (Breast), 72 hours, single agent; read-out: Example 3 IC50
[19] = test system: MCF7; test: Cancer cell panel, cell viability (resazurin): Breast, MCF7; assay type: cell-based; conditions: Homo sapiens, 72 hours, single agent, read-out: Example 3 IC50
Method: as §1, §2

[20] = test system: Caki-1; test: Cancer cell panel, cell viability (resazurin): Renal, Caki-1; assay type: cell-based; conditions: Homo sapiens; Caki-1 (Renal), 72 hours, single agent; read-out: Example 3 IC50
[21] = test system: Caki-2; test: Cancer cell panel, cell viability (resazurin): Renal, Caki-2; assay type: cell-based; conditions: Homo sapiens; Caki-2 (Renal), 72 hours, single agent; read-out: Example 3 IC50
Method: as §1, §2

[22] = test system: A375; test: Cancer cell panel, cell viability (resazurin): Melanoma, A375; assay type: cell-based; conditions: Homo sapiens, A-375, 72 hours, single agent, read-out: Example 3 IC50
Method: as §1, §2

[23] = test system: SK-MEL-3; test: Cancer cell panel, cell viability (resazurin): Melanoma, SK-MEL-3; assay type: cell-based; conditions: Homo sapiens, SK-MEL3; SK-MEL-3 (Melanoma), 72 hours, single agent; read-out: Example 3 IC50
[24] = test system: WM-115; test: Cancer cell panel, cell viability (resazurin): Melanoma, WM-115; assay type: cell-based; conditions: Homo sapiens; WM-115 (Melanoma), 72 hours, single agent; read-out: Example 3 IC50
[25] = test system: RPMI8226; test: Cancer cell panel, cell viability (resazurin): multiple myeloma, RPMI8226; assay type: cell-based; conditions: Homo sapiens, RPMI-8226, 72 hours, single agent, read-out: Example 3 IC50
Method: as §1, §2

[26] = test system: Ramos; test: Cancer cell panel, cell viability (resazurin): Burkitt's Lymphoma, Ramos; assay type: cell-based; conditions: Homo sapiens, 72 hours, single agent, read-out: Example 3 IC50
[27] = test system: Raji; test: Cancer cell panel, cell viability (resazurin): Burkitt's Lymphoma, Raji; assay type: cell-based; conditions: Homo sapiens, 72 hours, single agent, read-out: Example 3 IC50
Method: as §1, §2

[28] = test system: Daudi; test: Cancer cell panel, cell viability (resazurin): Burkitt's Lymphoma, Daudi; assay type: cell-based; conditions: Homo sapiens, 72 hours, single agent, read-out: Example 3 IC50
[29] = test system: NAMALWA; test: Cancer cell panel, cell viability (resazurin): Burkitt's Lymphoma, NAMALWA; assay type: cell-based; conditions: 72 hours, single agent, read-out: Example 3 IC50
Method: as §1, §2

[30] = test system: HL60; test: Cancer cell panel, cell viability (resazurin): Leukemia, HL60; assay type: cell-based; conditions: Homo sapiens, HL-60, 72 hours, single agent, read-out: Example 3 IC50
Method: as §1, §2

[31] = test system: MOLT4; test: Cancer cell panel, cell viability (resazurin): Leukemia, MOLT4; assay type: cell-based; conditions: Homo sapiens, MOLT-4, 72 hours, single agent, read-out: Example 3 IC50
Method: as §1, §2

Chain of purified CK2α enzyme (P68400 whole entry): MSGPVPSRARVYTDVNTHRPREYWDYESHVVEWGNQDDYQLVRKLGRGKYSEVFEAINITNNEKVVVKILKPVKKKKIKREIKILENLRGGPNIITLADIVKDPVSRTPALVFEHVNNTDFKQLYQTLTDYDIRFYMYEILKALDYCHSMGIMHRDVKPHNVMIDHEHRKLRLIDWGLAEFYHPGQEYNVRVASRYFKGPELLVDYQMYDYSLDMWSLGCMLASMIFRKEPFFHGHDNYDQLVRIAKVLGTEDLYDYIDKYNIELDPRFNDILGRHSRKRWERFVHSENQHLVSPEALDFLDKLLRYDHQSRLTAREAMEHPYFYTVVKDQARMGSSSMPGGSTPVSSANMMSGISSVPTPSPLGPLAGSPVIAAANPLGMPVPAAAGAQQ

C[S@+]([O-])Cc1cc(Nc2cc(NC3CC3)n3ncc(C#N)c3n2)ccc1Cl [Example 3, (S)(+)-5-((4-Chloro-3-((methylsulfinyl)methyl)phenyl)amino)-7-(cyclopropylamino)pyrazolo[1,5-a]pyrimidine-3-carbonitrile]
Ki [1]: < 2.5 nM
IC50 [2]: 112 nM
IC50 [3]: 420 nM
IC50 [4]: 42 nM
IC50 [5]: 527 nM
IC50 [6]: 50 nM
IC50 [7]: 253 nM
IC50 [8]: 539 nM
IC50 [9]: 356 nM
IC50 [10]: 197 nM
IC50 [11]: 170 nM
IC50 [12]: 572 nM
IC50 [13]: 1670 nM
IC50 [14]: 387 nM
IC50 [15]: 575 nM
IC50 [16]: 227 nM
IC50 [17]: 228 nM
IC50 [18]: 98 nM
IC50 [19]: 1820 nM
IC50 [20]: 171 nM
IC50 [21]: 669 nM
IC50 [22]: 218 nM
IC50 [23]: 429 nM
IC50 [24]: 286 nM
IC50 [25]: 233 nM
IC50 [26]: 312 nM
IC50 [27]: 249 nM
IC50 [28]: 217 nM
IC50 [29]: 206 nM
IC50 [30]: 261 nM
IC50 [31]: 420 nM
